The nature of one data set: logP determination by HPLC on a reversed-phase column (C18), EEC Directive 79/831 Annex V.A8. Conditions: HPLC on reversed-phase column (C18). The format is physicochemical.
In the case of `CCS(=O)(=O)c1cc(C(F)(C(F)(F)F)C(F)(F)F)cc(C)c1-n1cc(-c2ccc(Cl)c(C(=O)NC3CC3)c2)cn1` [I-T3-210], the “log P” value amounted to 3.9.
`CCS(=O)(=O)c1cc(C(F)(F)F)cc(C#N)c1-n1cc(-c2ccc(Cl)c(C(=O)NC3(C#N)CC3)c2)cn1` [I-T3-190]: the “log P” value stood at 2.9.
On to `CN(C(=O)c1cc(-c2cnn(-c3c(I)cc(C(F)(C(F)(F)F)C(F)(F)F)cc3C(F)(F)F)c2)ccc1Cl)C1CC1` [I-T3-229], for which the “log P” value was 5.1.
Turning to `O=C(NC1CC1)c1cc(-c2cnn(-c3c(Cl)cc(C(F)(C(F)(F)F)C(F)(F)F)cc3I)c2)ccc1Cl` [I-T3-213], the lipophilicity (log P) was 4.4.
On the same count and under the same terms, the figure for `CCSc1cc(C(F)(C(F)(F)F)C(F)(F)F)cc(C)c1-n1cc(-c2ccc(Cl)c(C(=O)NC3(C#N)CC3)c2)cn1` [I-T3-202] is 4.5.
For the molecule `CCS(=O)(=O)c1cc(C(F)(C(F)(F)F)C(F)(F)F)cc(C)c1-n1cc(-c2ccc(Cl)c(C(=O)NC3(C#N)CC3)c2)cn1` [I-T3-209], the “log P” value amounted to 3.8.
With `O=C(NC1CC1)c1cc(-c2cnn(-c3c(F)cc(C(F)(F)F)cc3Cl)c2)ccc1Cl` [I-T3-186], the “log P” value came out at 3.6.
`O=C(NC1CC1)c1cc(-c2cnn(-c3c(Cl)cc(C(O)(C(F)(F)F)C(F)(F)F)cc3Cl)c2)cnc1Cl` [I-T3-221]: the “log P” value is reported as 3.0.
Same read-out and setting: the figure for `N#Cc1cc(C(F)(C(F)(F)F)C(F)(F)F)cc(Cl)c1-n1cc(-c2cnc(Cl)c(C(=O)NC3CC3)c2)cn1` [I-T3-205] is 3.5.
On the same count and under the same terms, the figure for `CC[S+]([O-])c1cc(C(F)(C(F)(F)F)C(F)(F)F)cc(C)c1-n1cc(-c2ccc(Cl)c(C(=O)NC3(C#N)CC3)c2)cn1` (stereo not shown) [I-T3-206] is 3.6.
Consider `CN(C(=O)c1cc(-c2cnn(-c3c(Cl)cc(C(F)(C(F)(F)F)C(F)(F)F)cc3C#N)c2)cnc1Cl)C1CC1` [I-T3-204], for which the “log P” value was determined as 3.9.
Same read-out and setting: next, `CN(C(=O)c1cc(-c2cnn(-c3c(Cl)cc(C(F)(C(F)(F)F)C(F)(F)F)cc3OC(F)(F)F)c2)ccc1Cl)C1CC1` [I-T3-219]: 5.1.
On the same count and under the same terms, next, `CN(C(=O)c1cc(-c2cnn(-c3c(Cl)cc(C(F)(C(F)(F)F)C(F)(F)F)cc3OC(F)(F)F)c2)cnc1Cl)C1CC1` [I-T3-208]: 4.6; `CCSc1cc(C(F)(C(F)(F)F)C(F)(F)F)cc(C)c1-n1cc(-c2ccc(Cl)c(C(=O)NC3CC3)c2)cn1` [I-T3-203]: 4.6; `CN(C(=O)c1cc(-c2cnn(-c3c(I)cc(C(F)(C(F)(F)F)C(F)(F)F)cc3OC(F)(F)F)c2)ccc1Cl)C1CC1` [I-T3-225]: 5.2.
As for `Cc1cc(C(F)(C(F)(F)F)C(F)(F)F)cc(C(F)(F)F)c1-n1cc(-c2cnc(Cl)c(C(=O)NCC3(C#N)CC3)c2)cn1` [I-T3-197], the “log P” value turned out to be 4.0.
For `CC[S+]([O-])c1cc(C(F)(C(F)(F)F)C(F)(F)F)cc(Cl)c1-n1cc(-c2ccc(Cl)c(C(=O)NC3(C#N)CC3)c2)cn1` (stereo not shown) [I-T3-195], the “log P” value worked out at 3.8.
Consider `CN(C(=O)c1cc(-c2cnn(-c3c(Cl)cc(C(F)(C(F)(F)F)C(F)(F)F)cc3OC(F)F)c2)cnc1Cl)C1CC1` [I-T3-217], for which the “log P” value came to 4.2.
Turning to `N#Cc1cc(C(F)(C(F)(F)F)C(F)(F)F)cc(Cl)c1-n1cc(-c2cnc(Cl)c(C(=O)NC3(C#N)CC3)c2)cn1` [I-T3-207], the “log P” value came out at 3.5.
As to `CCS(=O)(=O)c1cc(C(F)(C(F)(F)F)C(F)(F)F)cc(S(=O)(=O)CC)c1-n1cc(-c2ccc(Cl)c(C(=O)NC3(C#N)CC3)c2)cn1` [I-T3-198], the log partition coefficient (log P) came out at 3.7.
Regarding `CCOc1cc(C(F)(C(F)(F)F)C(F)(F)F)cc(OCC)c1-n1cc(-c2cnc(Cl)c(C(=O)N(C)C3CC3)c2)cn1` [I-T3-211], the “log P” value is on record as 4.7.
The same measure, in the same setting: next, `CCSc1cc(C(F)(C(F)(F)F)C(F)(F)F)cc(Cl)c1-n1cc(-c2ccc(Cl)c(C(=O)NC3(C#N)CC3)c2)cn1` [I-T3-192]: 4.5; `N#CC1(NC(=O)c2cc(-c3cnn(-c4c(Cl)cc(C(F)(C(F)(F)F)C(F)(F)F)cc4OC(F)F)c3)ccc2Cl)CC1` [I-T3-215]: 4.1.
For the molecule `N#CC1(NC(=O)c2cc(-c3cnn(-c4c(Cl)cc(C(F)(C(F)(F)F)C(F)(F)F)cc4OC(F)F)c3)cnc2Cl)CC1` [I-T3-218], the “log P” value was 3.7.
Regarding `O=C(NC1CC1)c1cc(-c2cnn(-c3c(Cl)cc(C(F)(C(F)(F)F)C(F)(F)F)cc3OC(F)F)c2)ccc1Cl` [I-T3-214], the “log P” value is 4.3.

The same data set, now with this note: HPLC, reversed-phase C18, acetonitrile/water with formic acid, 55° C.
In turn, `CN(C(=O)c1cc(-c2ccn(-c3c(Cl)cc(C(F)(C(F)(F)F)C(F)(F)F)cc3Cl)c2)cnc1Cl)C1(C#N)CC1` [I-T46-6] yielded a logP of 4.8.
Same read-out and setting: next, `CN(C(=O)c1cc(-c2ccn(-c3c(Cl)cc(C(F)(C(F)(F)F)C(F)(F)F)cc3Cl)c2)cnc1Cl)C1CC1` [I-T46-3]: 5.0; `O=C(NC1CC1)c1cc(-c2ccn(-c3c(Cl)cc(C(F)(C(F)(F)F)C(F)(F)F)cc3Cl)c2)cnc1Cl` [I-T46-4]: 4.5.
Same read-out and setting: next, `N#CC1(NC(=O)c2cc(-c3ccn(-c4c(Cl)cc(C(F)(C(F)(F)F)C(F)(F)F)cc4Cl)c3)cnc2Cl)CC1` [I-T46-5]: 4.4.

The same data set, now with this note: HPLC-MS method a), Table I-T3.
With `Cc1cc(C(F)(C(F)(F)F)C(F)(F)F)cc(C)c1-n1cc(-c2cc(C(=O)NC3CC3)c(Cl)cc2F)cn1` [I-T3-14], the “logP^a)” value was 4.5.

The same data set, now with this note: HPLC-MS, reversed-phase column (C18).
In the case of `NC(=S)C1(NC(=O)c2cc(-c3cnn(-c4c(Cl)cc(C(F)(C(F)(F)F)C(F)(F)F)cc4C(F)(F)F)c3)cnc2Cl)CC1` [I-T3-159], the “log P” value is given as 3.8.
On to `CSc1cc(C(F)(C(F)(F)F)C(F)(F)F)cnc1-n1cc(-c2ccc(Cl)c(C(=O)NC3(C#N)CC3)c2)cn1` [I-T3-166], for which the “log P” value is listed as 4.3.
The same measure, in the same setting: next, `CCS(=O)(=O)c1cc(C(F)(F)F)cc(C#N)c1-n1cc(-c2ccc(Cl)c(C(=O)NC3CC3)c2)cn1` [I-T3-180]: 2.8; `CC[S+]([O-])c1cc(C(F)(F)F)cc(C#N)c1-n1cc(-c2ccc(Cl)c(C(=O)NC3CC3)c2)cn1` (stereo not shown) [I-T3-181]: 2.7.
In the case of `O=C(NC1CC1)c1cccc(-c2cnn(-c3ncc(C(F)(F)F)cc3Cl)c2)c1` [I-T3-122], the “log P” value was determined as 3.0.
`CCSc1cc(C(F)(F)F)cc(Cl)c1-n1cc(-c2ccc(Cl)c(C(=O)NC3(C#N)CC3)c2)cn1` [I-T3-170]: the “log P” value is 3.7.
Take `O=C(NC1CC1)c1cc(-c2cnn(-c3ncc(C(F)(C(F)(F)F)C(F)(F)F)cc3Cl)c2)ccc1Cl` [I-T3-152]: the “log P” value turned out to be 4.1.
In the case of `CN(C(=O)c1cc(-c2cnn(-c3ccc(C(F)(C(F)(F)F)C(F)(F)F)cc3C(F)(F)F)c2)ccc1Cl)C1CC1` [I-T3-134], the “log P” value came out at 4.9.

The data set is the same for the next values; noted with them: reversed-phase HPLC column (C18), HPLC, reversed-phase C18, acetonitrile/water with formic acid, 55° C.; read-out: logP.
Regarding `Cc1cc(C(F)(C(F)(F)F)C(F)(F)F)cc(Br)c1N` [2-bromo-6-methyl-4-heptafluoroisopropylaniline], the chromatographic logP came out at 4.38.
Same read-out and setting: next, `CCSc1cc(C(F)(C(F)(F)F)C(F)(F)F)cnc1-n1cc(-c2ccc(Cl)c(C(=O)NC3CC3)c2)cn1` [I-T3-156, 2-Chloro-N-cyclopropyl-5-{1-[3-(ethylsulphanyl)-5-(1,1,1,2,3,3,3-heptafluoropropan-2-yl)pyridin-2-yl]-1H-pyrazol-4-yl}benzamide]: 4.69.
In the case of `CCc1cc(C(F)(C(F)(F)F)C(F)(F)F)cc(Cl)c1N` [2-chloro-6-ethyl-4-heptafluoroisopropylaniline], the chromatographic logP came to 4.67.

The same data set, now with this note: reversed-phase HPLC column (C18), HPLC-MS method a), reversed-phase column (C18); read-out: logP^a).
For the molecule `CCSc1cc(C(F)(C(F)(F)F)C(F)(F)F)cnc1-n1cc(-c2ccc(Cl)c(C(=O)NC3CC3)c2)cn1` [I-T3-156, 2-Chloro-N-cyclopropyl-5-{1-[3-(ethylsulphanyl)-5-(1,1,1,2,3,3,3-heptafluoropropan-2-yl)pyridin-2-yl]-1H-pyrazol-4-yl}benzamide], the chromatographic logP amounted to 4.7.

Staying with this data set, now noted: reversed-phase HPLC column (C18), HPLC-MS, reversed-phase column (C18); read-out: log P.
For `CCSc1cc(C(F)(C(F)(F)F)C(F)(F)F)cnc1-n1cc(-c2ccc(Cl)c(C(=O)NC3CC3)c2)cn1` [I-T3-156, 2-Chloro-N-cyclopropyl-5-{1-[3-(ethylsulphanyl)-5-(1,1,1,2,3,3,3-heptafluoropropan-2-yl)pyridin-2-yl]-1H-pyrazol-4-yl}benzamide], the chromatographic logP came out at 4.7.

For the origin of these results see patent US9758485B2, “Compounds for controlling arthropods” (priority 2013, dated 2017).
